In patent US12661410B2, “Compounds for targeted degradation of RET” (C4 Therapeutics, Inc., priority 2020, dated 2026):
Changes are numbered by the printed parent chain. Read-outs that look alike come from different tables or passages of the source.

Experiments:
[1] = target: T1, RET(KD: 658-1114 G810R) (Homo sapiens, UniProt P07949, G810R); assay: HiBiT-Degradation, RET G810R degradation assay (Nano-Glo HiBiT Lytic), 293T.165 cells; type: cell-based; settings: for Emax / DC50: 6.0 hours; for Emax: % remaining protein, read-out: 293T.165 RET(KD: 658-1114 G810R) 6.0 hours (Emax); for DC50: read-out: 293T.165 RET(KD: 658-1114 G810R) 6.0 hours (DC50)
T1 construct: 658-1114; expressed in transfected cells; host or cells: 293T.165 (293T cells, generated in-house)
T1 sequence (P07949 658-1114 G810R): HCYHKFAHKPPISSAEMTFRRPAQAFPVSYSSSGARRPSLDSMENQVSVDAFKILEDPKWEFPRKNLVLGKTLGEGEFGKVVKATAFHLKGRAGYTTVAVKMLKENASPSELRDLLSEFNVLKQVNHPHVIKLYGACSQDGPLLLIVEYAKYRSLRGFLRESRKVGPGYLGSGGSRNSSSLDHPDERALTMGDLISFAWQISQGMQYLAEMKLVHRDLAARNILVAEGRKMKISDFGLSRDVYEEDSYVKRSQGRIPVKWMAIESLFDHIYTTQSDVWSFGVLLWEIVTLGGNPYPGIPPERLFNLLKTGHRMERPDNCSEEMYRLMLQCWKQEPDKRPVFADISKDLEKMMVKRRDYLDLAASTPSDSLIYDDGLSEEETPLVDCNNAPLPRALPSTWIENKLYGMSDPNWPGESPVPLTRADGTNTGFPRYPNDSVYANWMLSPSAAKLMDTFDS
Summary of the method: (§1)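 HEK293T lines stably expressing HiBiT-tagged RET kinase domain (WT: 293T.144; G810R: 293T.165) were treated with degraders for 6 h in duplicate, 11-point half-log series from 10 μM top dose. Lysis with Nano-Glo HiBiT Lytic reagent, luminescence read; DC50 and Emax (% remaining protein) derived from dose-response curves.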

[2] = target: T2, RET (658-1114) (Homo sapiens, UniProt P07949); assay: HiBiT-Degradation, RET wild-type degradation assay (Nano-Glo HiBiT Lytic), 293T.144 cells; type: cell-based; settings: for Emax / DC50: 6.0 hours; for Emax: read-out: 293T.144 RET (658-1114) 6.0 hours (Emax); for DC50: read-out: 293T.144 RET (658-1114) 6.0 hours (DC50)
T2 construct: 658-1114; expressed in transfected cells; host or cells: 293T.144 (293T cells, generated in-house)
T2 sequence (P07949 658-1114): T1 sequence (P07949 658-1114 G810R) with R153G
Summary of the method: as §1

[3] = half-maximal degradation concentration

293T.165 RET(KD: 658-1114 G810R) 6.0 hours (IP) [nM] [1] | Emax [1] [%] | DC50 [1, 3] [nM] | 293T.144 RET (658-1114) 6.0 hours (IP) [nM] [2] | Emax ([2]; % remaining protein) [%] | DC50 [2, 3] [nM] | 293T.165 RET(KD: 658-1114 G810R) 6.0 hours (Emax) ([1]; HiBiT-Degradation) | 293T.165 RET(KD: 658-1114 G810R) 6.0 hours (IP) [nM] ([1]; HiBiT-Degradation) | DC50 ([1]; HiBiT-Degradation) [nM] | 293T.144 RET (658-1114) 6.0 hours (IP) [nM] ([2]; HiBiT-Degradation) | DC50 ([2]; HiBiT-Degradation) [nM] | Emax ([2]; HiBiT-Degradation) [%] | SMILES
++++ (<50 nM = ++++) | < 30 | < 50 | ++++ (<50 nM = ++++) | < 30 | < 50 | – | – | – | – | – | – | CCC1(C(=O)NC(C)C)CCN(c2ccc(-c3nc(-c4cnn(C5CCN(C(=O)CC6(O)CCN(c7cc(OC)c(NC8CCC(=O)NC8=O)cc7Cl)CC6)CC5)c4)cn4ncc(C#N)c34)cn2)CC1 (centres unmarked) [Compound 90, 1-[5-[6-[1-[1-[2-[1-[2-chloro-4-[(2,6-dioxo-3-piperidyl)amino]-5-methoxy-phenyl]-4-hydroxy-4-piperidyl]acetyl]-4-piperidyl]pyrazol-4-yl]-3-cyano-pyrazolo[1,5-a]pyrazin-4-yl]-2-pyridyl]-4-ethyl-N-isopropyl-piperidine-4-carboxamide]
++++ (<50 nM = ++++) | < 30 | < 100 | ++++ (<50 nM = ++++) | < 30 | < 50 | – | – | – | – | – | – | CCC1(C(=O)NC(C)C)CCN(c2ccc(-c3nc(-c4cnn(C5CCN(C(=O)CC6(OC)CCN(c7ccc(NC8CCC(=O)NC8=O)cc7F)CC6)CC5)c4)cn4ncc(C#N)c34)cn2)CC1 (centres unmarked) [Compound 92, 1-[5-[3-cyano-6-[1-[1-[2-[1-[4-[(2,6-dioxo-3-piperidyl)amino]-2-fluoro-phenyl]-4-methoxy-4-piperidyl]acetyl]-4-piperidyl]pyrazol-4-yl]pyrazolo[1,5-a]pyrazin-4-yl]-2-pyridyl]-4-ethyl-N-isopropyl-piperidine-4-carboxamide]
++++ (<50 nM = ++++) | < 50 | < 100 | ++++ (<50 nM = ++++) | < 30 | < 50 | – | – | – | – | – | – | CCC1(c2ncccn2)CCN(c2ccc(-c3nc(-c4cnn([C@H]5CC[C@H](N6CCC(c7ccc(N[C@@H]8CCC(=O)NC8=O)cc7F)CC6)CC5)c4)cn4ncc(C#N)c34)cn2)CC1 (single isomer, unassigned) [Compound 140]
– | < 50 | < 100 | – | – | – | +++ (<50% = +++) | ++++ (< 50 nM = ++++) | < 100 | ++++ (< 50 nM = ++++) | < 50 | < 30 | CC(C)(C)NC(=O)C1(C)CCN(c2ccc(-c3cc(-c4ccc(N5CCN(C(=O)CN6CCC(c7ccc(NC8CCC(=O)NC8=O)cc7F)CC6)CC5)cc4)cn4ncc(C#N)c34)cn2)CC1 (centres unmarked) [Compound 25, N-(tert-butyl)-1-(5-(3-cyano-6-(4-(4-(2-(4-(4-((2,6-dioxopiperidin-3-yl)amino)-2-fluorophenyl)piperidin-1-yl)acetyl)piperazin-1-yl)phenyl)pyrazolo[1,5-a]pyridin-4-yl)pyridin-2-yl)-4-methylpiperidine-4-carboxamide]
++++ (<50 nM = ++++) | < 30 | < 100 | ++++ (<50 nM = ++++) | < 30 | < 50 | – | – | – | – | – | – | CCC1(C(=O)NC2CCC2)CCN(c2ccc(-c3nc(-c4cnn([C@H]5CC[C@H](N6CCC(c7ccc8c(N9CCC(=O)NC9=O)nn(C)c8c7F)CC6)CC5)c4)cn4ncc(C#N)c34)cn2)CC1 (single isomer, unassigned) [Compound 138, 1-(5-(3-Cyano-6-(1-((1r, 4r)-4-(4-(3-(2,4-dioxotetrahydropyrimidin-1(2H)-yl)-7-fluoro-1-methyl-1H-indazol-6-yl)piperidin-1-yl)cyclohexyl)-1H-pyrazol-4-yl)pyrazolo[1,5-a]pyrazin-4-yl)pyridin-2-yl)-N-cyclobutyl-4-ethylpiperidine-4-carboxamide]
– | < 30 | < 100 | – | – | – | ++++ (< 30% = ++++) | +++ (<100 nM = +++) | < 100 | ++++ (< 50 nM = ++++) | < 50 | < 30 | CC1(NC(=O)Cc2ccccc2)CCN(c2ccc(-c3cc(-c4ccc(N5CCN(C(=O)CN6CCC(c7ccc(NC8CCC(=O)NC8=O)cc7F)CC6)CC5)cc4)cn4ncc(C#N)c34)cn2)CC1 (centres unmarked) [Compound 23, N-(1-(5-(3-Cyano-6-(4-(4-(2-(4-(4-((2,6-dioxopiperidin-3-yl)amino)-2-fluorophenyl)piperidin-1-yl)acetyl)piperazin-1-yl)phenyl)pyrazolo[1,5-a]pyridin-4-yl)pyridin-2-yl)-4-methylpiperidin-4-yl)-2-phenylacetamide]
– | < 30 | < 50 | – | – | – | ++++ (< 30% = ++++) | ++++ (< 50 nM = ++++) | < 50 | ++++ (< 50 nM = ++++) | < 50 | < 30 | N#Cc1cnn2cc(-c3cnn([C@H]4CC[C@H](CCN5CCC(c6ccc(NC7CCC(=O)NC7=O)cc6F)CC5)CC4)c3)nc(-c3ccc(N4CCN(C(=O)Cc5ccc(F)cn5)CC4)nc3)c12 (some centres unmarked) [Compound 60, 6-[1-[(1r,4r)-4-[2-[4-[4-[(2,6-dioxo-3-piperidyl)amino]-2-fluoro-phenyl]-1-piperidyl]ethyl]cyclohexyl]pyrazol-4-yl]-4-[6-[4-[2-(5-fluoro-2-pyridyl)acetyl]piperazin-1-yl]-3-pyridyl]pyrazolo[1,5-a]pyrazine-3-carbonitrile]
– | < 30 | < 50 | – | – | – | ++++ (< 30% = ++++) | ++++ (< 50 nM = ++++) | < 50 | ++++ (< 50 nM = ++++) | < 50 | < 30 | CCC1(C(=O)NC2CCOCC2)CCN(c2ccc(-c3cc(-c4cnn([C@H]5CC[C@H](CCN6CCC(c7ccc(NC8CCC(=O)NC8=O)cc7F)CC6)CC5)c4)cn4ncc(C#N)c34)cn2)CC1 (stereo partly drawn) [Compound 40, 1-(5-(3-Cyano-6-(1-((trans)-4-(2-(4-(4-((2,6-dioxopiperidin-3-yl)amino)-2-fluorophenyl)piperidin-1-yl)ethyl)cyclohexyl)-1H-pyrazol-4-yl)pyrazolo[1,5-a]pyridin-4-yl)pyridin-2-yl)-4-ethyl-N-(tetrahydro-2H-pyran-4-yl)piperidine-4-carboxamide]

SMILES | 293T.165 RET(KD: 658-1114 G810R) 6.0 hours (IP) [nM] [1] | Emax [1] [%] | DC50 [1, 3] [nM] | 293T.144 RET (658-1114) 6.0 hours (IP) [nM] [2] | Emax ([2]; % remaining protein) [%] | DC50 [2, 3] [nM] | 293T.165 RET(KD: 658-1114 G810R) 6.0 hours (Emax) ([1]; HiBiT-Degradation) | 293T.165 RET(KD: 658-1114 G810R) 6.0 hours (IP) [nM] ([1]; HiBiT-Degradation) | DC50 ([1]; HiBiT-Degradation) [nM] | 293T.144 RET (658-1114) 6.0 hours (IP) [nM] ([2]; HiBiT-Degradation) | DC50 ([2]; HiBiT-Degradation) [nM] | Emax ([2]; HiBiT-Degradation) [%]
N#Cc1cnn2cc(-c3cnn(C4CCN(C(=O)CC5(O)CCN(c6ccc(NC7CCC(=O)NC7=O)cc6F)CC5)CC4)c3)nc(-c3ccc(N4CC5CC(C4)N5Cc4ccccc4)nc3)c12 (centres unmarked) [Compound 176, 4-(6-(6-benzyl-3,6-diazabicyclo[3.1.1]heptan-3-yl)pyridin-3-yl)-6-(1-(1-(2-(1-(4-((2,6-dioxopiperidin-3-yl)amino)-2-fluorophenyl)-4-hydroxypiperidin-4-yl)acetyl)piperidin-4-yl)-1H-pyrazol-4-yl)pyrazolo[1,5-a]pyrazine-3-carbonitrile] | ++++ (<50 nM = ++++) | < 30 | < 50 | ++++ (<50 nM = ++++) | < 30 | < 50 | – | – | – | – | – | –
